Compound: CC1=CC(=CC=C1)NC2=NC(=CS2)C3=CC=NC=C3 + C[C@]1(O)C[C@@H](c2nc(-c3ccc4ccc(-c5ccccc5)nc4c3)c3c(N)nccn32)C1 [Linsitinib] (partner 1 µM)
Assay: relative viability (nuclei count vs DMSO), 5 days (fraction); higher = more cells survive
Details: first compound 0.08 µM
How it was run: (§1)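 Nuclei were stained with Hoechst during a one-step fixation (final 0.05% Triton X-100, 1% formaldehyde, 1 ug/ml Hoechst) carried out 5 days after dosing, then counted on 4× images. The cells, lung cancer lines in 1536-well plates, had been dosed by pin tool the day after seeding with one drug alone or a fixed anchor-drug dose plus five library-drug doses (not always all listed) in √10 steps. Relative viability is the nuclei count in treated wells divided by that in vehicle wells, and each value is the median of duplicate plates.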

Cell Line | relative viability
NCI-H1651 | 0.958
EBC-1 | 0.621
NCI-H1734 | 0.828
NCI-H2009 | 1.15
PC-14 | 0.858
LCLC-103H | 0.942
NCI-H596 | 1.03
NCI-H2228 | 0.569
EMC-BAC-2 | 0.712
NCI-H2087 | 0.934
Calu-6 | 0.765
HCC-366 | 0.454
NCI-H1703 | 0.733
NCI-H647 | 1.01
LK-2 | 0.581
NCI-H2126 | 0.671
H3255 | 0.95
COR-L23 | 0.821
COR-L 105 | 0.822
IA-LM | 0.489
LOU-NH91 | 0.82
NCI-H358 | 0.733
NCI-H3122 | 0.991
HOP-62 | 0.984
HCC-44 | 0.59
A549 | 0.486
NCI-H441 | 0.497
NCI-H1395 | 0.999
NCI-H1299 | 0.93

Same assay, conditions: first compound 0.253 µM

Cell Line | relative viability
NCI-H838 | 0.937
NCI-H1651 | 0.955
EBC-1 | 0.698
NCI-H1734 | 0.981
NCI-H2009 | 1.16
LU99A | 0.669
PC-14 | 0.944
LCLC-103H | 0.967
NCI-H596 | 0.995
NCI-H2228 | 0.629
EMC-BAC-2 | 0.817
NCI-H2087 | 0.862
Calu-6 | 0.934
HCC-366 | 0.593
NCI-H1703 | 0.632
NCI-H647 | 0.992

Cell Line | relative viability
LK-2 | 0.778
NCI-H2126 | 0.694
NCI-H1793 | 0.763
H3255 | 0.951
COR-L23 | 0.89
COR-L 105 | 0.738
IA-LM | 0.49
LOU-NH91 | 0.925
NCI-H358 | 0.798
NCI-H3122 | 0.938
HOP-62 | 0.706
HCC-44 | 0.497
A549 | 0.684
NCI-H441 | 0.574
NCI-H1395 | 0.949
NCI-H1299 | 0.985

Same assay, conditions: first compound 0.8 µM

Cell Line | relative viability
NCI-H838 | 0.855
NCI-H1651 | 0.919
EBC-1 | 0.757
NCI-H1734 | 0.869
NCI-H2009 | 1.1
LU99A | 0.532
PC-14 | 0.86
LCLC-103H | 1.01
NCI-H596 | 0.764
NCI-H2228 | 0.408
EMC-BAC-2 | 0.781
NCI-H2087 | 0.996
Calu-6 | 0.871
HCC-366 | 0.501
NCI-H1703 | 0.64
NCI-H647 | 1.05

Cell Line | relative viability
LK-2 | 0.729
NCI-H2126 | 0.71
NCI-H1793 | 0.92
H3255 | 0.966
COR-L23 | 0.62
COR-L 105 | 0.803
IA-LM | 0.692
LOU-NH91 | 0.903
NCI-H358 | 0.639
NCI-H3122 | 0.907
HOP-62 | 1.03
HCC-44 | 0.486
A549 | 0.619
NCI-H441 | 0.708
NCI-H1395 | 1.01
NCI-H1299 | 0.936

Same assay, conditions: first compound 2.53 µM

Cell Line | relative viability
NCI-H838 | 0.868
NCI-H1651 | 0.999
EBC-1 | 0.686
NCI-H1734 | 0.835
NCI-H2009 | 1.18
LU99A | 0.554
PC-14 | 1.01
LCLC-103H | 1.24
NCI-H596 | 0.991
NCI-H2228 | 0.586
EMC-BAC-2 | 0.802
NCI-H2087 | 0.888
Calu-6 | 0.879
HCC-366 | 0.563
NCI-H1703 | 0.732
NCI-H647 | 1.1

Cell Line | relative viability
LK-2 | 0.413
NCI-H2126 | 0.726
NCI-H1793 | 0.753
H3255 | 0.795
COR-L23 | 0.892
COR-L 105 | 0.808
IA-LM | 0.308
LOU-NH91 | 0.979
NCI-H358 | 0.8
NCI-H3122 | 1
HOP-62 | 1.16
HCC-44 | 0.539
A549 | 0.532
NCI-H441 | 0.523
NCI-H1395 | 0.932
NCI-H1299 | 0.928

Same assay, conditions: first compound 8 µM

Cell Line | relative viability
NCI-H838 | 0.651
NCI-H1651 | 0.926
EBC-1 | 0.786
NCI-H1734 | 0.719
NCI-H2009 | 1.15
LU99A | 0.538
PC-14 | 0.844
LCLC-103H | 1.03
NCI-H596 | 0.806
NCI-H2228 | 0.705
EMC-BAC-2 | 0.718
NCI-H2087 | 0.798
Calu-6 | 0.756
HCC-366 | 0.399
NCI-H1703 | 0.555
NCI-H647 | 0.815

Cell Line | relative viability
LK-2 | 0.427
NCI-H2126 | 0.657
NCI-H1793 | 0.825
H3255 | 0.956
COR-L23 | 0.843
COR-L 105 | 0.653
IA-LM | 0.549
LOU-NH91 | 0.769
NCI-H358 | 0.666
NCI-H3122 | 0.964
HOP-62 | 0.725
HCC-44 | 0.662
A549 | 0.562
NCI-H441 | 0.497
NCI-H1395 | 0.903
NCI-H1299 | 0.928

Compound: Cc1ccc(NC(=O)c2ccc(CN3CCN(C)CC3)cc2)cc1Nc1nc(-c2cccnc2)cs1 [Masitinib] + COc1cccc2cc(-c3nc([C@H]4CC[C@H](C(=O)O)CC4)n4ncnc(N)c34)[nH]c12 [OSI-027] (partner 0.5 µM)
Assay: as above
Details: first compound 0.01 µM
How it was run: as §1

Cell Line | relative viability
NCI-H522 | 0.784
NCI-H1623 | 0.373
NCI-H838 | 0.353
